Data published in patent US20110097274A1, “Carbon-11 and fluorine-18 labeled radioligands for positron emission tomography (PET) imaging for the brain serotonin transporters” (priority 2002, published 2011).
Where “and” joins values, the source holds several entries; their conditions need not be identical. Identical values can stand only once. Like-named read-outs stand apart in the source and are kept apart here.

What was measured:
[1] = Plasma free fraction (f1) and filter retention by ultrafiltration; type: in vitro ADME, baboon; conditions: mean ± SD of four experiments
Description: Plasma and ultrafiltrate activities were counted, and f1 was calculated as the ratio of ultrafiltrate activity to total plasma activity. Triplicate aliquots of the radioligand in pH 7.4 Tris buffer were also processed to determine the filter retention of free tracer.

[2] = Baboon PET imaging: brain uptake, kinetic analysis and SERT parameters; type: in vivo; conditions: male, baboon, intravenous, baboons
Description: (§1) PET imaging protocol: PET experiments (n=20) were performed at Columbia University. Two adult male baboons (baboon A and B) were studied twice with each of the 5 radioligands (4 experiments per radioligand). All experiments took place within a 9-month period. Baboons A and B were 31 kg and 21 kg in weight at the beginning of the experimental period and 28 and 22 kg at the end, respectively. Test and retest experiments with the same radioligand were obtained on different days, with an average interval of 117±53 days.
(§2) Experiments were performed according to protocols approved by the Columbia-Presbyterian Medical Center Institutional Animal Care and Use Committee. Fasted animals were immobilized with ketamine (10 mg/kg i.m.), and anesthetized with 1.8% isoflurane via an endotracheal tube. Vital signs were monitored every 10 minutes and the temperature was kept constant at 37° C. with heated water blankets. An i.v. perfusion line was used for hydration and injection of radioligands and nonradioactive drugs. A catheter was inserted in a femoral artery for arterial blood sampling. Head was positioned at the center of the field of view as defined by imbedded laser lines. PET imaging was performed with the ECAT EXACT HR+PET scanner (Siemens/CTI, Knoxville, Tenn.). In 3D mode, this camera provides an in-plane resolution of 4.3 mm, 4.5 mm, 5.4 mm and 8.0 mm full width at half maximum (FWHM) at a distance of 0, 1, 10 and 20 cm from the center of the field of view, respectively (Brix et al., 1997). A 15 minute transmission scan was obtained prior to radioligand injection for attenuation correction. Activity was injected i.v. over 30 seconds. […] Emission data was collected in the 3D mode for 91 minutes as 21 successive frames of increasing duration (6*10 seconds, 2*1 minutes, 4*2 minutes, 2*5 minutes, and 7*10 minutes).
(§3) Image analysis: A Magnetic Resonance Image (MRI) of each baboon's brain was obtained for the purpose of identifying the regions of interest (ROI) (T1-weighted axial MRI sequence, acquired parallel to the anterior-posterior commissure, TR 34 msec, TE 5 msec, flip angle of 45 degrees, slice thickness is 1.5 mm, zero gap, matrix 1.5 mm×1 mm×1 mm voxels). The following regions were drawn on the MR images: cerebellum, midbrain, thalamus, striatum, hippocampus, temporal cortex, cingulate cortex and occipital cortex.
(§4) PET emission data were attenuation-corrected using the transmission scan, and frames were reconstructed using a Shepp filter (cutoff 0.5 cycles/projection rays). Reconstructed image files were then processed using the image analysis software MEDx (Sensor Systems, Inc., Sterling, Va.). An image was created by summing all the frames, and this summed image was used to define the registration parameters with the MR image, using between-modality automated image registration (AIR) algorithm (Woods et al., 1993). Registration parameters were then applied to the individual frames for registration to the MR data set. Regional boundaries were transferred to the individual registered PET frames, and time-activity curves were measured and decay-corrected. Right and left regions were averaged. For a given animal, the same regions were used for all radioligands.
(§5) Brain uptake: Total brain uptake was expressed as percentage of the injected dose per gram of tissue (% ID g^−1) in a region encompassing the entire brain. Regional peak time was defined as the mid-time of the frame associated with the highest activity value. To estimate the degree of wash-out from the brain captured during the scan interval (91 minutes), the decrease in activity from the peak frame to the last frame was calculated and expressed in percentage of the peak activity.
(§6) Kinetic analysis: Regional total distribution volumes (VT, mL g^−1) were derived with kinetic analysis of the regional time-activity curves, using the arterial plasma concentrations as input function. […]

SERT = assay: as above; type: in vivo; conditions: for Kp: male, baboon, brain, intravenous
Description: as §1, §2, §3, §4, §5, §6

[3] = BP = VT ROI − VT CER, baboons, mean ± SD of four experiments
[4] = Mean ± SD of four experiments in two baboons
[5] = baboon A, experiments of FIGS. 5-9 (FIG. 10)
[6] = baboons, mean ± SD of four experiments
[7] = last scan 90 minutes, baboons, mean ± SD of four experiments
[8] = one-tissue compartment model, baboons, mean ± SD of four experiments

CN(C)Cc1ccccc1Sc1ccc(I)cc1N [[^11C]ADAM]
Filter retention ([1]; activity remaining on filter, radioligand dissolved in saline): 88.2 ± 5.2% | fraction unbound at 20 min ([1]; male, monkey, baboon plasma, ultrafiltration): 0.009 ± 0.007 | Kp ([2]; brain regions (average of all regions), read-out: VT, average of all regions and all animals): 42.8 ± 12.9 | Kp ([2]; cerebellum, one-tissue compartment model, mean ± SD of four experiments, read-out: VT Cerebellum (VT CER, nonspecific distribution volume)): 28.5 ± 4.8 | Binding potential Cingulate Cortex (SERT; [3]): 8.8 ± 3.9 mL/g | Binding potential Hippocampus (SERT; [3]): 12.6 ± 3.3 mL/g | Binding potential Midbrain (SERT; [3]): 28.5 ± 6.7 mL/g | Binding potential Occipital Cortex (SERT; [3]): 4.9 ± 3.8 mL/g | Binding potential Striatum (SERT; [3]): 17.8 ± 3.7 mL/g | Binding potential Temporal Cortex (SERT; [3]): 10.1 ± 5.0 mL/g | Binding potential Thalamus (SERT; [3]): 31.4 ± 6.1 mL/g | Equilibrium specific to non-specific partition coefficient (V3″) Cingulate Cortex (SERT; Baboon A, single experiment): 0.28 and 0.43 | Equilibrium specific to non-specific partition coefficient (V3″) Hippocampus (SERT; Baboon A, single experiment): 0.41 and 0.49 | Equilibrium specific to non-specific partition coefficient (V3″) Midbrain (SERT; Baboon A, single experiment): 1.04 and 0.81 | Equilibrium specific to non-specific partition coefficient (V3″) Striatum (SERT; Baboon A, single experiment): 0.65 and 0.59 | Equilibrium specific to non-specific partition coefficient (V3″) Temporal Cortex (SERT; Baboon A, single experiment): 0.41 and 0.47 | Equilibrium specific to non-specific partition coefficient (V3″) Thalamus (SERT; Baboon A, single experiment): 1.18 and 0.92 | Equilibrium specific to non-specific partition coefficient (V3″) Cingulate Cortex (SERT; Baboon B, single experiment): 0.23 and 0.26 | Equilibrium specific to non-specific partition coefficient (V3″) Hippocampus (SERT; Baboon B, single experiment): 0.38 and 0.47 | Equilibrium specific to non-specific partition coefficient (V3″) Midbrain (SERT; Baboon B, single experiment): 0.91 and 1.25 | Equilibrium specific to non-specific partition coefficient (V3″) Occipital Cortex (SERT; Baboon B, single experiment): 0.07 and 0.12 | Equilibrium specific to non-specific partition coefficient (V3″) Striatum (SERT; Baboon B, single experiment): 0.56 and 0.68 | Equilibrium specific to non-specific partition coefficient (V3″) Temporal Cortex (SERT; Baboon B, single experiment): 0.18 and 0.30 | Equilibrium specific to non-specific partition coefficient (V3″) Thalamus (SERT; Baboon B, single experiment): 1.05 and 1.26 | Equilibrium specific to non-specific partition coefficient (V3″) Cingulate Cortex (SERT; [4]): 0.30 ± 0.09 | Equilibrium specific to non-specific partition coefficient (V3″) Hippocampus (SERT; [4]): 0.44 ± 0.05 | Equilibrium specific to non-specific partition coefficient (V3″) Midbrain (SERT; [4]): 1.00 ± 0.19 | Equilibrium specific to non-specific partition coefficient (V3″) Occipital Cortex (SERT; [4]): 0.16 ± 0.11 | Equilibrium specific to non-specific partition coefficient (V3″) Striatum (SERT; [4]): 0.62 ± 0.06 | Equilibrium specific to non-specific partition coefficient (V3″) Temporal Cortex (SERT; [4]): 0.34 ± 0.13 | Equilibrium specific to non-specific partition coefficient (V3″) Thalamus (SERT; [4]): 1.10 ± 0.15 | Thalamus to cerebellum ratio equal to true equilibrium ratio (V3″+1) (SERT; [5]): 1.92 | Time at which measured thalamus to cerebellum ratio equals the true equilibrium ratio (estimate of peak specific binding) (SERT; [5]): 55 min | K1, average of all regions and all animals (SERT; baboons): 1.09 ± 0.35 mL/g/min | k2, average of all regions and all animals (SERT; baboons): 0.028 ± 0.011 min⁻¹ | V3″ expressed in percentage of [^11C]McN 5652 V3″ (SERT; baboons, combining all regions): 128±24% | Mean regional peak uptake time (SERT; baboons, mean of all regions): 37 ± 18 min | Mean regional wash-out (% decrease between peak time and last scan) (SERT; baboons, mean of all regions): 25±14% | Cingulate Cortex to cerebellum activity ratio at 90 minutes (SERT; [6]): 1.29 ± 0.07 | Hippocampus to cerebellum activity ratio at 90 minutes (SERT; [6]): 1.45 ± 0.06 | Midbrain to cerebellum activity ratio at 90 minutes (SERT; [6]): 1.96 ± 0.18 | Occipital Cortex to cerebellum activity ratio at 90 minutes (SERT; [6]): 1.14 ± 0.09 | Regional uptake peak time Cerebellum (SERT; [6]): 14 ± 5 min | Regional uptake peak time Cingulate Cortex (SERT; [6]): 32 ± 17 min | Regional uptake peak time Hippocampus (SERT; [6]): 46 ± 8 min | Regional uptake peak time Midbrain (SERT; [6]): 49 ± 22 min | Regional uptake peak time Occipital Cortex (SERT; [6]): 30 ± 18 min | Regional uptake peak time Striatum (SERT; [6]): 39 ± 15 min | Regional uptake peak time Temporal Cortex (SERT; [6]): 39 ± 13 min | Regional uptake peak time Thalamus (SERT; [6]): 51 ± 24 min | Striatum to cerebellum activity ratio at 90 minutes (SERT; [6]): 1.65 ± 0.13 | Temporal Cortex to cerebellum activity ratio at 90 minutes (SERT; [6]): 1.33 ± 0.08 | Thalamus to cerebellum activity ratio at 90 minutes (SERT; [6]): 2.05 ± 0.23 | Total brain uptake at 45 min (SERT; baboons, region encompassing the entire brain): 0.017±0.001 % ID g^−1 | Regional activity wash-out: % decrease from peak to last scan, Cerebellum (SERT; [7]): 45 ± 8% | Regional activity wash-out: % decrease from peak to last scan, Cingulate Cortex (SERT; [7]): 34 ± 7% | Regional activity wash-out: % decrease from peak to last scan, Hippocampus (SERT; [7]): 15 ± 6% | Regional activity wash-out: % decrease from peak to last scan, Midbrain (SERT; [7]): 10 ± 7% | Regional activity wash-out: % decrease from peak to last scan, Occipital Cortex (SERT; [7]): 36 ± 10% | Regional activity wash-out: % decrease from peak to last scan, Striatum (SERT; [7]): 23 ± 6% | Regional activity wash-out: % decrease from peak to last scan, Temporal Cortex (SERT; [7]): 25 ± 8% | Regional activity wash-out: % decrease from peak to last scan, Thalamus (SERT; [7]): 12 ± 5% | Kp (SERT; cingulate cortex, one-tissue compartment model, baboons, mean ± SD of four experiments, read-out: VT Cingulate Cortex): 37.3 ± 8.5 | Kp (SERT; hippocampus, one-tissue compartment model, baboons, mean ± SD of four experiments, read-out: VT Hippocampus): 41.1 ± 8 | Kp (SERT; midbrain, one-tissue compartment model, baboons, mean ± SD of four experiments, read-out: VT Midbrain): 57 ± 10.2 | Kp (SERT; occipital cortex, one-tissue compartment model, baboons, mean ± SD of four experiments, read-out: VT Occipital Cortex): 33.5 ± 8.3 | Kp (SERT; striatum, one-tissue compartment model, baboons, mean ± SD of four experiments, read-out: VT Striatum): 46.3 ± 8.4 | Kp (SERT; temporal cortex, one-tissue compartment model, baboons, mean ± SD of four experiments, read-out: VT Temporal Cortex): 38.6 ± 9.7 | Kp (SERT; thalamus, one-tissue compartment model, baboons, mean ± SD of four experiments, read-out: VT Thalamus): 59.9 ± 10.1 | K1 Cerebellum (SERT; [8]): 1.23 ± 0.44 mL/g/min | K1 Cingulate Cortex (SERT; [8]): 1.20 ± 0.38 mL/g/min | K1 Hippocampus (SERT; [8]): 0.85 ± 0.32 mL/g/min | K1 Midbrain (SERT; [8]): 1.00 ± 0.35 mL/g/min | K1 Occipital Cortex (SERT; [8]): 1.12 ± 0.33 mL/g/min | K1 Striatum (SERT; [8]): 1.15 ± 0.45 mL/g/min | K1 Temporal Cortex (SERT; [8]): 1.02 ± 0.37 mL/g/min | K1 Thalamus (SERT; [8]): 1.14 ± 0.32 mL/g/min | K2 Cerebellum (SERT; [8]): 0.043 ± 0.012 min⁻¹ | K2 Cingulate Cortex (SERT; [8]): 0.033 ± 0.009 min⁻¹ | K2 Hippocampus (SERT; [8]): 0.021 ± 0.006 min⁻¹ | K2 Midbrain (SERT; [8]): 0.018 ± 0.006 min⁻¹ | K2 Occipital Cortex (SERT; [8]): 0.034 ± 0.010 min⁻¹ | K2 Striatum (SERT; [8]): 0.025 ± 0.008 min⁻¹ | K2 Temporal Cortex (SERT; [8]): 0.027 ± 0.009 min⁻¹ | K2 Thalamus (SERT; [8]): 0.020 ± 0.006 min⁻¹ | VT Cerebellum (VT CER, nonspecific distribution volume) (SERT; [8]): 28.5 ± 4.8 mL/g
